“Also recorded” adds a separate entry of the source. Where two headings read alike, the source gives them in different places.
Tests used:
T. gondii = test: Cidal test: cultures kept 52 days after removing compound on the 4th day; type: cell-based, Toxoplasma gondii; conditions: exposed 4 days, compound removed, cultured 52 days
From the text: In separate experiments, to determine whether JPC-2067-B would be cidal for T. gondii, cultures were maintained for 52 days after removing JPC-2067-B on the 4th day of culture.

Rat liver DHFR = molecular target: T1, Rat liver DHFR (Rattus norvegicus, UniProt Q920D2); test: Spectrophotometric DHFR assay, rat liver DHFR; type: biochemical; conditions: 37°C; (95% confidence limits)
T1 construct: Rat liver DHFR was prepared from livers of female Sprague-Dawley rats; from tissue; host or cells: liver of female Sprague-Dawley rats
T1 sequence (Q920D2 1-187): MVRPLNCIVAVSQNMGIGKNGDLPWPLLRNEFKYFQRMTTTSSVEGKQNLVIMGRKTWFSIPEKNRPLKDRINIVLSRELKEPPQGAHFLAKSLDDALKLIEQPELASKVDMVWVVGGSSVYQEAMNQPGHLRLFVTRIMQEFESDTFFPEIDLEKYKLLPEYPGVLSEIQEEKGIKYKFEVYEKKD
Experimental: Rat liver DHFR was prepared from livers of female Sprague-Dawley rats. The 100,000× g supernate was partially purified by ammonium sulfate precipitation; the 50–90% precipitate was re-dissolved and stored in liquid nitrogen.
(§1) The spectrophotometric assay for DHFR was optimized for temperature and concentration of substrate and cofactor for each enzyme. […] The reaction was continuously recorded for 3 minutes. […] The low background activity in the absence of dihydrofolic acid was subtracted from all rates.
(§2) DHFR was assayed with several concentrations of inhibitor to produce rates ranging from 1 to 90% of the uninhibited rate. At least three concentrations were required for calculation; most curves contained five concentrations.

TgDHFR = molecular target: T2, TgDHFR (Toxoplasma gondii, UniProt Q07422); test: biochemical; type: biochemical; conditions: 37°C
T2 construct: DHFR from T. gondii was isolated directly from RH strain T. gondii grown in culture; endogenous in cells; host or cells: RH strain T. gondii grown on CHO/dhfr- cells
T2 sequence (Q07422 1-610): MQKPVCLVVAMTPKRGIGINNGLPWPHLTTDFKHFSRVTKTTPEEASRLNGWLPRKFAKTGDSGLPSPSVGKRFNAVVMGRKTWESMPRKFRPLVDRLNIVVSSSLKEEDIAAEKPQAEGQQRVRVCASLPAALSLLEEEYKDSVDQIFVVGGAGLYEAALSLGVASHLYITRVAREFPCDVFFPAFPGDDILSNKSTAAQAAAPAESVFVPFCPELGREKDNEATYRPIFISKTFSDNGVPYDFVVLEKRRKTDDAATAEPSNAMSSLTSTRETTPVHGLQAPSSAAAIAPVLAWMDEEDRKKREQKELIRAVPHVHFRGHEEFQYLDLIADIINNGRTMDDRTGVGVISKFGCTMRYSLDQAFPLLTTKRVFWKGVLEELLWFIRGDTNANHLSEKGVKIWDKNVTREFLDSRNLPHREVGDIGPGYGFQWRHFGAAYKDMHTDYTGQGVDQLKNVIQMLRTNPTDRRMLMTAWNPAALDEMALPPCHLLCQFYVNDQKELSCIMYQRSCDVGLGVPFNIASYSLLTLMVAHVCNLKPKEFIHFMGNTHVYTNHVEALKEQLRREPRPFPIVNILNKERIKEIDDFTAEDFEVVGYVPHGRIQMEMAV
Experimental: DHFR from Pneumocystis carinii was produced as the recombinant enzyme expressed in Escherichia coli. […] Organisms were introduced into a confluent monolayer and harvested when the mammalian cells were lysed. The 100,000× g supernate was stored in liquid nitrogen.
as §1, §2

Mav DHFR = molecular target: T3, Mav DHFR (Mycobacterium avium, UniProt O30463); test: Spectrophotometric DHFR assay, Mycobacterium avium-intracellulare DHFR; type: biochemical; conditions: 37°C; (95% confidence limits)
T3 construct: the bacteria were centrifuged, sonicated, and the 100,000 Xg supernate was stored under liquid nitrogen until assay; endogenous in cells; host or cells: M. avium-intracellulare clinical isolate (serovar 4), Indiana University School of Medicine
T3 sequence (O30463 1-181): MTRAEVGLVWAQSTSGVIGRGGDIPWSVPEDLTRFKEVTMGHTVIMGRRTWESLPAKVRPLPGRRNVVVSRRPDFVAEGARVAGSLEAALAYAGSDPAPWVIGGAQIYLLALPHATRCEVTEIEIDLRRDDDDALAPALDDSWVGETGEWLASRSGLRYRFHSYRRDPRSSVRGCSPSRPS
Experimental: Mycobacterium avium-intracellulare used in these studies was a clinical isolate (serovar 4) from Indiana University School of Medicine, Department of Pathology. The strain was maintained on Lowenstein-Jensen slants (Baxter Scientific) grown at room temperature. To produce enzyme, the organism was grown in Middlebrook 7H-9 liquid medium at 37°C to an OD660 of 0.5 to 0.7, which took several weeks. At harvest, the bacteria were centrifuged, sonicated, and the 100,000 Xg supernate was stored under liquid nitrogen until assay. These supernates contained both DHFR and dihydroopteroate synthetase activity.
The spectrophotometric assay for DHFR was optimized for temperature and concentration of substrate and cofactor for each enzyme. The standard assay contained Na phosphate buffer pH 7.4 (40.7 mM), 2-mercaptoethanol (8.9 mM), NADPH (0.117 mM), dihydrofolic acid (0.09 mM), KCL (150 mM), and sufficient enzyme to produce a change in OD340 of 0.035/minute at 37°C. The reaction was continuously recorded for 3 minutes. Activity under these conditions was linear with enzyme concentration over a 4-fold range. The low background activity in the absence of dihydrofolic acid was subtracted from all rates.
as §2

hDHFR = molecular target: T4, hDHFR (Homo sapiens, UniProt P00374); test: Plate reader DHFR assay, recombinant human DHFR; type: biochemical
T4 construct: made in house
T4 sequence (P00374 1-187): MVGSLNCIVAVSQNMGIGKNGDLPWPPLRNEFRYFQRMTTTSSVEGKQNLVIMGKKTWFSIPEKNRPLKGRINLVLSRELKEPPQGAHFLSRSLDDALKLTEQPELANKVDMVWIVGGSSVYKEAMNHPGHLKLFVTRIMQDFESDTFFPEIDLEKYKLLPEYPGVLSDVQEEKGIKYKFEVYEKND
From the text: DHFR from T. gondii prepared as above was also directly compared to purified recombinant P. falciparum DHFR (pfDHFR) and purified recombinant human DHFR (hDHFR). The hDHFR was from pDFR plasmid. The enzyme was purified following ammonium sulfate precipitation, methotrexate:agarose affinity chromatography, and finally a Superdex 200 size exclusion column. The pfDHFR isolation methods were those reported previously,[44]. […] The same buffer as used in the other assays comparing T. gondii DHFR with DHFRs from rat liver P. carinii and M. avium intracellulare was used but the maximal activity, temperature, and length of observation were adjusted for assays on the specific plate reader. […] The reaction was setup at 23°C, the plate loaded, and the OD340 recorded at 20 second intervals for 10 minutes. The first 8 minutes were used to generate linear fit slopes in Excel. […] Results are expressed as the percent of control activity versus log concentration of inhibitor. Prism 5.0 was used to generate curves from 12 different concentrations of inhibitor using a non-linear fit method.

Question: Which results are given for `CC1(C)N=C(N)N=C(N)N1OCCCOc1ccc(OC(F)(F)F)cc1Cl` [JPC-2067-B, 4,6-diamino-1,2-dihydro-2,2-dimethyl-1-(3′(2-chloro-, 4-trifluoromethoxyphenoxy)propyloxy)-1,3,5-triazine]?
Answer: Plaques or growth of parasites after removal of compound (cidal effect) (T. gondii): No plaques or Toxoplasma were seen throughout 52 days of culture; also recorded: No plaques or growth of parasites were detected; IC50 (Rat liver DHFR): 22.2 nM; IC50 (TgDHFR; (95% confidence limits), read-out: Tg DHFR IC50): 6.5 nM; Ratio of IC50 values rat liver DHFR/TgDHFR (TgDHFR; lysates): 3.4; IC50 (Mav DHFR): 3.75 nM; IC50 (hDHFR; recombinant, 23°C, (95% Confidence Intervals), read-out: hDHFR IC50): 148 nM; IC50 (hDHFR; text to Figure 5 and Table 2, read-out: IC50 for human DHFR): 150 nM

— PMC2254147, “Novel Triazine JPC-2067-B Inhibits Toxoplasma gondii In Vitro and In Vivo” (PLoS Neglected Tropical Diseases, 2008)
